We go through 19 molecules from US10711000B2 (Fronthera U.S. Pharmaceuticals LLC, priority 2018, dated 2020).

Where two headings read alike, the source gives them in different places.

The target of the assay is T1, Autotaxin (Homo sapiens, UniProt Q13822).
T1 construct: from tissue; host or cells: pooled human plasma
The assay is described as follows: LPA formation in pooled human plasma (ex vivo autotaxin inhibition). Format: biochemical. Particulars: 2 hours incubation. How it is done:
Autotaxin is a plasma phosphodiesterase that converts lysophosphatidylcholine (LPC) into lysophosphatidic acid (LPA), therefore LPA formation was used to evaluate the potency of autotaxin inhibitors. The potency of compound was evaluated ex vivo in pooled human plasma.
Various concentrations of compound were incubated with plasma for 2 hours, and the LPA 18:2 and 20:4 concentration was measured by LC/MS/MS. To determine the LPA18:2 or 20:4 concentration in study plasma, a 10× calibration standard of LPA 18:2 or 20:4 were prepared by serial dilution in butyl alcohol: 20000, 10000, 5000, 2000, 1000, 500, 200, 100, 50, 20, and 10 ng/mL. 3 μL of calibration standard solution was added into 27.0 μL of blank plasma in 1.5-mL microcentrifuge tubes to generate 1× calibration standards. The 30.0 μL of standards or study plasma was added into 1.5-mL microcentrifuge tubes. 200 μL of butyl alcohol (containing 25.0 ng/mL LPA17:0 for internal control) was added into each 1.5-mL microcentrifuge tube containing study plasma or calibration standards. After vortexing for 1 minute and centrifuging at 10000 rpm for 10 min, 180 μL of supernatant was transferred into a 96-well plate and the LPA18:2 concentration in the plasma was quantitated using LC/MS/MS together with standards. Briefly, 8 μL of the solutions were injected for LC-MS/MS analysis using an ACQUITY UPLC BEH C18 column (2.1×50 mm, 1.7 μm) with mobile phase A [20 mM NH4OAC in water (0.1% FA)] and phase B [5 mM NH4OAC in water/0.2% FA in ACN=5:95]. Mass spectrometer parameters optimization for LPA18:2 were performed by Deprotonated molecular ion at m/z 433.2 ([M−H]^−) for LPA18:2, 457.2 for LPA20:4 and abundant product ion at m/z 152.8 for both LPA18:2 and LPA20:4 were obtained. Quantitative data were acquired in multiple reaction monitoring (MRM) negative electrospray ionization mode
The inhibition rate of LPA formation was determined by comparing the levels of LPA in treated and non-treated plasma. The data was plotted against the corresponding concentration of compound and the IC50 was calculated through non-linear regression fitting.

Where [1] appears, read: LPA 18:2 by LC/MS/MS, read-out: LPA formation (18:2) (IC50).
Setting [2] is: LPA 20:4 by LC/MS/MS, read-out: LPA formation (20:4) (IC50).

As to `CCc1nn2c(C)cc(N3CC4(CN(C(=O)[C@H](O)CO)C4)C3)cc2c1N(C)c1nc(-c2ccc(F)cc2)c(C#N)s1` (single isomer, unassigned) [Example 75], the half-inhibitory concentration (IC50) reads like this: under setting [1], 100 to 500 nM; under setting [2], 100 to 500 nM.

Regarding `CCc1nn2c(C)cc(N3CC4(CN(C(=O)[C@@H](O)CO)C4)C3)cc2c1N(C)c1nc(-c2ccc(F)cc2)c(C#N)s1` (single isomer, unassigned) [Example 76], the IC50 was ≤ 100 nM under setting [1] and 100 to 500 nM under setting [2].

As for `CCc1nn2c(C)cc(N3CC4(CN(C(=O)[C@H]5COC[C@@H]5O)C4)C3)cc2c1N(C)c1nc(-c2ccc(F)cc2)c(C#N)s1` (stereo in doubt) [Example 59, 2-((2-ethyl-5-(6-(4-hydroxytetrahydrofuran-3-carbonyl)-2,6-diazaspiro[3.3]heptan-2-yl)-7-methylpyrazolo[1,5-a]pyridin-3-yl)(methyl)amino)-4-(4-fluorophenyl)thiazole-5-carbonitrile], the concentration for half-maximal inhibition (IC50) by setting is: under setting [1], 100 to 500 nM; under setting [2], 100 to 500 nM.

For the molecule `CCc1nn2c(C)cc(N3CC4(CN(C(=O)[C@@H]5COC[C@H]5O)C4)C3)cc2c1N(C)c1nc(-c2ccc(F)cc2)c(C#N)s1` (stereo in doubt) [Example 74, 2-((2-ethyl-5-(6-(4-hydroxytetrahydrofuran-3-carbonyl)-2,6-diazaspiro[3.3]heptan-2-yl)-7-methylpyrazolo[1,5-a]pyridin-3-yl)(methyl)amino)-4-(4-fluorophenyl)thiazole-5-carbonitrile], the half-maximal inhibitory concentration (IC50) runs as follows: under setting [1], 100 to 500 nM; under setting [2], 100 to 500 nM.

On to `CCn1nc2ncc(N3CCN(CC(=O)N4CC(O)C4)CC3)cc2c1N(C)c1nc(-c2ccc(F)cc2)c(C#N)s1` [Compound 115, 2-((2-ethyl-5-(4-(2-(3-hydroxyazetidin-1-yl)-2-oxoethyl)piperazin-1-yl)-2H-pyrazolo[3,4-b]pyridin-3-yl)(methyl)amino)-4-(4-fluorophenyl)thiazole-5-carbonitrile], for which the IC50 was ≤ 100 nM under setting [1] and ≤ 100 nM under setting [2].

For the molecule `CCn1nc2ncc(N3CC4(CN(C(=O)C5(O)CCOCC5)C4)C3)cc2c1N(C)c1nc(-c2ccc(F)cc2)c(C#N)s1` [Compound 116, 2-((2-ethyl-5-(6-(4-hydroxytetrahydro-2H-pyran-4-carbonyl)-2,6-diazaspiro[3.3]heptan-2-yl)-2H-pyrazolo[3,4-b]pyridin-3-yl)(methyl)amino)-4-(4-fluorophenyl)thiazole-5-carbonitrile], the half-inhibitory concentration (IC50) was ≤ 100 nM under setting [1] and ≤ 100 nM under setting [2].

On to `CCn1nc2nc(C)c(N3CC4(CN(C(=O)C(C)(C)O)C4)C3)cc2c1N(C)c1nc(-c2ccc(F)cc2)c(C#N)s1` [Compound 120, 2-((2-ethyl-5-(6-(2-hydroxy-2-methylpropanoyl)-2,6-diazaspiro[3.3]heptan-2-yl)-6-methyl-2H-pyrazolo[3,4-b]pyridin-3-yl)(methyl)amino)-4-(4-fluorophenyl)thiazole-5-carbonitrile], for which the IC50 runs as follows: under setting [1], ≤ 100 nM; under setting [2], ≤ 100 nM.

For the molecule `CCn1nc2nc(C)c(N3CC4(CN(C(=O)[C@H]5CCOC5)C4)C3)cc2c1N(C)c1nc(-c2ccc(F)cc2)c(C#N)s1` [Compound 121, (S)-2-((2-ethyl-6-methyl-5-(6-(tetrahydrofuran-3-carbonyl)-2,6-diazaspiro[3.3]heptan-2-yl)-2H-pyrazolo[3,4-b]pyridin-3-yl)(methyl)amino)-4-(4-fluorophenyl)thiazole-5-carbonitrile], the IC50 runs as follows: under setting [1], ≤ 100 nM; under setting [2], ≤ 100 nM.

`CCn1nc2c(C)cc(N3CCN(CC(=O)N4CC(O)C4)CC3)cc2c1N(C)c1nc(-c2ccc(F)cc2)c(C#N)s1` [Compound 125, 2-((2-ethyl-5-(4-(2-(3-hydroxyazetidin-1-yl)-2-oxoethyl)piperazin-1-yl)-7-methyl-2H-indazol-3-yl)(methyl)amino)-4-(4-fluorophenyl)thiazole-5-carbonitrile]: the IC50 was 500 to 1000 nM under setting [1] and 500 to 1000 nM under setting [2].

Take `CCc1nn2ccc(N3CCN(CC(=O)N4CC(O)C4)CC3)cc2c1N(C)c1nc(-c2ccc(F)cc2)c(C#N)s1` [Example 1, 2-((2-ethyl-5-(4-(2-(3-hydroxyazetidin-1-yl)-2-oxoethyl)piperazin-1-yl)pyrazolo[1,5-a]pyridin-3-yl)(methyl)amino)-4-(4-fluorophenyl)thiazole-5-carbonitrile]: the concentration for half-maximal inhibition (IC50) is ≤ 100 nM under setting [1] and ≤ 100 nM under setting [2].

With `CCc1nn2ccc(N3CCN(CC(=O)N4CC[C@H](O)C4)CC3)cc2c1N(C)c1nc(-c2ccc(F)cc2)c(C#N)s1` [Example 2, (S)-2-((2-ethyl-5-(4-(2-(3-hydroxypyrrolidin-1-yl)-2-oxoethyl)piperazin-1-yl)pyrazolo[1,5-a]pyridin-3-yl)(methyl)amino)-4-(4-fluorophenyl)thiazole-5-carbonitrile], the 50% inhibitory concentration (IC50) runs as follows: under setting [1], ≤ 100 nM; under setting [2], ≤ 100 nM.

`CCc1nn2ccc(N3CCN(CC(=O)N4CC[C@@H](O)C4)CC3)cc2c1N(C)c1nc(-c2ccc(F)cc2)c(C#N)s1` [Example 3, (R)-2-((2-ethyl-5-(4-(2-(3-hydroxypyrrolidin-1-yl)-2-oxoethyl)piperazin-1-yl)pyrazolo[1,5-a]pyridin-3-yl)(methyl)amino)-4-(4-fluorophenyl)thiazole-5-carbonitrile]: the half-inhibitory concentration (IC50) reads like this: under setting [1], ≤ 100 nM; under setting [2], ≤ 100 nM.

For `CCc1nn2ccc(N3CCN(CC(=O)N4CC(CO)C4)CC3)cc2c1N(C)c1nc(-c2ccc(F)cc2)c(C#N)s1` [Example 4, 2-((2-ethyl-5-(4-(2-(3-(hydroxymethyl)azetidin-1-yl)-2-oxoethyl)piperazin-1-yl)pyrazolo[1,5-a]pyridin-3-yl)(methyl)amino)-4-(4-fluorophenyl)thiazole-5-carbonitrile], the IC50 was ≤ 100 nM under setting [1] and ≤ 100 nM under setting [2].

`CCc1nn2ccc(N3CCN(CC(=O)N(C)C)CC3)cc2c1N(C)c1nc(-c2ccc(F)cc2)c(C#N)s1` [Example 5, 2-(4-(3-((5-cyano-4-(4-fluorophenyl)thiazol-2-yl)(methyl)amino)-2-ethylpyrazolo[1,5-a]pyridin-5-yl)piperazin-1-yl)-N,N-dimethylacetamide]: the concentration for half-maximal inhibition (IC50) was ≤ 100 nM under setting [1] and ≤ 100 nM under setting [2].

As to `CCc1nn2ccc(N3CCC4(CC3)CC(C(=O)N3CC(O)C3)C4)cc2c1N(C)c1nc(-c2ccc(F)cc2)c(C#N)s1` [Example 6, 2-[[2-ethyl-5-[2-(3-hydroxyazetidine-1-carbonyl)-7-azaspiro[3.5]nonan-7-yl]pyrazolo[1,5-a]pyridin-3-yl]-methyl-amino]-4-(4-fluorophenyl)thiazole-5-carbonitrile], the IC50 is, setting by setting: under setting [1], ≤ 100 nM; under setting [2], ≤ 100 nM.

Regarding `CCc1nn2ccc(N3CC4(CC4C(=O)N4CC(O)C4)C3)cc2c1N(C)c1nc(-c2ccc(F)cc2)c(C#N)s1` (centres unmarked) [Example 7, 2-((2-ethyl-5-(1-(3-hydroxyazetidine-1-carbonyl)-5-azaspiro[2.3]hexan-5-yl)pyrazolo[1,5-a]pyridin-3-yl)(methyl)amino)-4-(4-fluorophenyl)thiazole-5-carbonitrile], the IC50 runs as follows: under setting [1], 100 to 500 nM; under setting [2], 100 to 500 nM.

As for `CCc1nn2ccc(N3CC4(CC(C(=O)N5CC(O)C5)C4)C3)cc2c1N(C)c1nc(-c2ccc(F)cc2)c(C#N)s1` [Example 8, 2-[[2-ethyl-5-[6-(3-hydroxyazetidine-1-carbonyl)-2-azaspiro[3.3]heptan-2-yl]pyrazolo[1,5-a]pyridin-3-yl]-methyl-amino]-4-(4-fluorophenyl)thiazole-5-carbonitrile], the IC50 reads like this: under setting [1], 100 to 500 nM; under setting [2], 100 to 500 nM.

Regarding `CCc1nn2ccc(N3CC4(CN(C(=O)[C@@H]5CCOC5)C4)C3)cc2c1N(C)c1nc(-c2ccc(F)cc2)c(C#N)s1` [Example 9, (R)-2-((2-ethyl-5-(6-(tetrahydrofuran-3-carbonyl)-2,6-diazaspiro[3.3]heptan-2-yl)pyrazolo[1,5-a]pyridin-3-yl)(methyl)amino)-4-(4-fluorophenyl)thiazole-5-carbonitrile], the IC50 reads like this: under setting [1], 100 to 500 nM; under setting [2], 100 to 500 nM.

Take `CCc1nn2ccc(N3CC4(CN(C(=O)[C@H]5CCOC5)C4)C3)cc2c1N(C)c1nc(-c2ccc(F)cc2)c(C#N)s1` [Example 10, (S)-2-((2-ethyl-5-(6-(tetrahydrofuran-3-carbonyl)-2,6-diazaspiro[3.3]heptan-2-yl)pyrazolo[1,5-a]pyridin-3-yl)(methyl)amino)-4-(4-fluorophenyl)thiazole-5-carbonitrile]: the 50% inhibitory concentration (IC50) reads like this: under setting [1], ≤ 100 nM; under setting [2], ≤ 100 nM.

The term IC50 denotes the midpoint of a concentration-inhibition curve.
